Tested on: familiarisation process in mice
Assay: light box/dark box test: familiarisation process (improvement of cognition)
Assay type: in vivo, mouse
Parameters: Time in the box, dark (D): unit not given here
Text: The influence of this product on the familiarisation process of mice in the light box/dark box test described by J. M. Barnes et al., (Pharmacol. Biochem. Behav., 1990, 35, 955-962) is studied. On the one hand, the effect on learning (the speed of familiarisation) and on the other hand the capacity for blocking contrary effects produced by escopolamine are studied.
The mouse is placed in the light zone of a box divided into two compartments, one brightly illuminated, the light box, and the other with little illumination, the dark box.
1) The number of times the mouse stands up on the hind paws in each compartment during a 5 minute period is counted (see Column 1 of the table below).
2) The activity in each compartment is given by counting the number of crossings through the squares which form the divisions of each compartment (see Column 2 of the table below).
3) The time passed in the dark box during the 5 minute counting period is determined (see Column 3 of the table below).
4) The initial latent period is determined, that is to say the time which elapses after the animal is placed in the light box, at the start of the test, before it enters the dark box (see Column 4 of the table below).
Two treatments with the vehicle are administered to the control animals per day. Two doses of 0.00001 ng/kg p.o. of compound 42 are administered per day to the animals treated with this product. The same operation is repeated daily for 5 days.
The animals learn to remain in the dark box for a longer period and to go into the box more rapidly.
On day six escopolamine (2×0.25 mg/kg, i.p.) is administered.
They recover the learned habit on day seven.

[1] = day 1, 0.00001 ng/kg, p.o., twice per day
[2] = day 2, 0.00001 ng/kg, p.o., twice per day
[3] = day 3, 0.00001 ng/kg, p.o., twice per day
[4] = day 4, 0.00001 ng/kg, p.o., twice per day
[5] = day 5, 0.00001 ng/kg, p.o., twice per day
[6] = day 6, after 2 treatments with escopolamine (0.25 mg/kg, i.p.), Example 42 at 0.00001 ng/kg p.o. twice per day
[7] = day 7, 0.00001 ng/kg, p.o., twice per day

Cc1nc(Cl)c(Cl)n1CCCCN1CCN(c2ncccn2)CC1.O=C(O)CC(O)(CC(=O)O)C(=O)O [Example 42, 4,5-dichloro-2-methyl-1-{4-[4-(2-pyrimidinyl)-1-piperazinyl]-butyl}-1H-imidazole citrate]
Activity within 5 min. period, dark (D) [1]: 82
Activity within 5 min. period, light (L) [1]: 36
Latent period L-D [1]: 11
No. of times standing erect within 5 min period, dark (D) [1]: 79
No. of times standing erect within 5 min period, light (L) [1]: 23
Time in the box, dark (D) [1]: 60
Activity within 5 min. period, dark (D) [2]: 167
Activity within 5 min. period, light (L) [2]: 11
Latent period L-D [2]: 2
No. of times standing erect within 5 min period, dark (D) [2]: 147
No. of times standing erect within 5 min period, light (L) [2]: 10
Time in the box, dark (D) [2]: 80
Activity within 5 min. period, dark (D) [3]: 179
Activity within 5 min. period, light (L) [3]: 10
Latent period L-D [3]: 2
No. of times standing erect within 5 min period, dark (D) [3]: 156
No. of times standing erect within 5 min period, light (L) [3]: 8
Time in the box, dark (D) [3]: 79
Activity within 5 min. period, dark (D) [4]: 183
Activity within 5 min. period, light (L) [4]: 9
Latent period L-D [4]: 1.5
No. of times standing erect within 5 min period, dark (D) [4]: 161
No. of times standing erect within 5 min period, light (L) [4]: 9
Time in the box, dark (D) [4]: 83
Activity within 5 min. period, dark (D) [5]: 176
Activity within 5 min. period, light (L) [5]: 12
Latent period L-D [5]: 1
No. of times standing erect within 5 min period, dark (D) [5]: 151
No. of times standing erect within 5 min period, light (L) [5]: 11
Time in the box, dark (D) [5]: 82
Activity within 5 min. period, dark (D) [6]: 181
Activity within 5 min. period, light (L) [6]: 14
Latent period L-D [6]: 1.5
No. of times standing erect within 5 min period, dark (D) [6]: 172
No. of times standing erect within 5 min period, light (L) [6]: 10
Time in the box, dark (D) [6]: 81
Activity within 5 min. period, dark (D) [7]: 187
Activity within 5 min. period, light (L) [7]: 8
Latent period L-D [7]: 1
No. of times standing erect within 5 min period, dark (D) [7]: 181
No. of times standing erect within 5 min period, light (L) [7]: 8
Time in the box, dark (D) [7]: 83
effect on the effects of escopolamine (escopolamine 2×0.25 mg/kg, i.p., day six): blocks the effects of escopolamine
cognition-improving activity (mice): has a cognition-improving activity
effect on the learning process (mice): improves the learning process
